Reference: the supplement of paper PMC11821682

Columns and labels:
[1] = tested on: Danio rerio embryo; assay: LEL embryonic photomotor response 24 hpf
Description: (§1)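 ZBEscreen: dechorionated Tropical 5D zebrafish embryos were exposed from 4 hpf in 96-well plates (1% DMSO, 28 °C). All compounds were first tested at 100 µM; hits were retested at 0.005-100 µM. Morphology and mortality were scored at 120 hpf and fitted as BMC10 (3-parameter log-logistic, extra risk). The embryonic photomotor response at 24 hpf and the larval photomotor response at 120 hpf are given as lowest effect levels (K-S test, p<0.01). NA = not significant up to 100 µM; NT = not tested.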

[2] = tested on: Danio rerio embryo; assay: BMC10 mortality 24-120 hpf; higher = less toxic
Description: as §1

[3] = tested on: Danio rerio embryo; assay: LEL larval photomotor response dark phase 120 hpf
Description: as §1

[4] = tested on: Danio rerio embryo; assay: BMC10 any morphological effect or mortality at 120 hpf; higher = less toxic
[5] = tested on: HL-60; assay: Cell Health Index (toxicity pseudo-probability over dose series) (index 0-1); higher = more cytotoxic / cell stress;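 also: HL-60 cells exposed 4 h at 37 °C to ten threefold dilutions spanning 5 nM to 100 µM, multiparametric flow cytometry features scored by machine-learning classification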

| SMILES | LEL embryonic photomotor response 24 hpf [1] | BMC10 mortality 24-120 hpf [2] | LEL larval photomotor response dark phase 120 hpf [3] | BMC10 any morphological effect or mortality [4] | Cell Health Index [5] |
| --- | --- | --- | --- | --- | --- |
| C=C[C@H](OC(C)=O)c1ccc(OC(C)=O)cc1 (racemic) [(±)-1'-Acetoxychavicol acetate] | > 100 µM | 1.96 µM | > 100 µM | 1.32 µM | 0.778 |
| COC(=O)C1=C(C)N=C(c2ncc(F)cc2F)NC1c1ccc(F)cc1Cl (racemic) [(±)-BAY 41-4109] | 11.1 µM | 12.6 µM | > 100 µM | 8.25 µM | 0.592 |
| CN1CCN(C(c2ccc(Cl)cc2)c2ccc(Cl)cc2)CC1 [1-[bis(4-chlorophenyl)methyl]-4-methyl-piperazine] | 11.1 µM | 16.1 µM | > 100 µM | 12.6 µM | 0.934 |
| CC(=O)c1c(O)cc(O)c(C(C)=O)c1O [2,4-Diacetylphloroglucinol] | 3.7 µM | 3.32 µM | > 100 µM | 1.45 µM | 0.669 |
| O[C@H]1[C@@]2([H])[C@](CC[C@]2([H])[C@](O)(C)CC/C=C(C)/C)(C)[C@]3(C)CC[C@]4([H])[C@@](CC[C@H](O[C@]5([H])O[C@H](CO)[C@@H](O)[C@H](O)[C@H]5O)C4(C)C)(C)[C@@]3([H])C1 [20(S)-Ginsenoside Rh2] | 11.1 µM | 9.35 µM | > 100 µM | > 100 µM | 0.787 |
| CC1(C)[C@@H](O)CC[C@@]2(C)[C@@]1([H])[C@@H](O)C[C@]3(C)[C@]2([H])C[C@@H](O)[C@@]4([H])[C@@]3(C)CC[C@]4([H])[C@@](C)(O)CC/C=C(C)/C [20(S)-Protopanaxatriol] | 33.3 µM | 25.7 µM | > 100 µM | 16.2 µM | 0.803 |
| Cc1sc2c(c1C)C(c1ccc(Cl)cc1)=N[C@@H](CC(=O)OC(C)(C)C)c1nnc(C)n1-2 [(+)-JQ1] | 3.7 µM | 1.15 µM | > 100 µM | 1.13 µM | 0.87 |
| Cc1cc(Nc2nc(N[C@@H](C)c3ccc(F)cc3)c(C#N)cc2F)n[nH]1 [AZ-960] | 3.7 µM | 1.95 µM | > 100 µM | 1.27 µM | 0.78 |
| O=C1c2cccc(O)c2C(=O)c2c(O)cc(CO)cc21 [Aloe-emodin] | 3.7 µM | 17.1 µM | > 100 µM | 9.08 µM | 0.198 |
| C[C@H]1[C@H](OC(=O)CCC(=O)O)O[C@@H]2O[C@@]3(C)CC[C@H]4[C@H](C)CC[C@@H]1[C@@]24OO3 [Artesunate] | > 100 µM | 9.08 µM | > 100 µM | 7.91 µM | 0.146 |
| C=C(C)[C@@H]1CC[C@]2(C(=O)O)CC[C@]3(C)[C@H](CC[C@@H]4[C@@]5(C)CC[C@H](OC(=O)CC(C)(C)C(=O)O)C(C)(C)[C@@H]5CC[C@]43C)[C@@H]12 [Bevirimat] | 11.1 µM | 3.82 µM | > 100 µM | 1.29 µM | 0.321 |
| COC(=O)c1cc(OC)c2c(c1-c1c(CO)cc(OC)c3c1OCO3)OCO2 [Bicyclol] | 0.046 µM | 10.7 µM | > 100 µM | 4.07 µM | 0.207 |
| CC(C)(C)C(O)C(Oc1ccc(-c2ccccc2)cc1)n1cncn1 (stereo not given) [Bitertanol] | 33.3 µM | 30.3 µM | 11.1 µM | 16.4 µM | 0.408 |
| Oc1c(Cl)cc(Cl)cc1Sc1cc(Cl)cc(Cl)c1O [Bithionol] | 3.7 µM | 0.795 µM | > 100 µM | 0.577 µM | 0.826 |
| CC(C)C[C@H](NC(=O)[C@H](Cc1ccccc1)NC(=O)c1cnccn1)B(O)O [Bortezomib] | > 100 µM | 17.4 µM | 0.14 µM | 13.2 µM | 0.24 |
| C[C@H]1CCC/C=C/[C@@H]2C[C@H](O)C[C@H]2[C@H](O)/C=C/C(=O)O1 [Brefeldin A] | 11.1 µM | 3.95 µM | > 100 µM | 1.09 µM | 0.226 |
| Cc1c(-c2ccc(-c3ccccc3F)cc2)nc2ccc(F)cc2c1C(=O)O [Brequinar] | 11.1 µM | 1.41 µM | > 100 µM | 0.331 µM | 0.332 |
| C[C@]12CC[C@H](O)C[C@H]1CC[C@@H]1[C@@H]2CC[C@]2(C)[C@@H](c3ccc(=O)oc3)C[C@H]3O[C@]132 [Bufogenin] | 11.1 µM | 1.41 µM | > 100 µM | 2.23 µM | 0.504 |
| COc1ccc(-c2oc3cc(OC)c(OC)c(O)c3c(=O)c2OC)cc1O [Casticin] | 3.7 µM | 1.28 µM | > 100 µM | 1.26 µM | 0.355 |
| CC[C@H]1CN2CCc3cc(OC)c(OC)cc3[C@@H]2C[C@@H]1C[C@H]1NCCc2cc(O)c(OC)cc21 [Cephaeline] | 3.7 µM | 0.159 µM | 0.41 µM | 0.069 µM | 0.562 |
